Laboratory results as given in patent US7723364B2, “N-[2-(2-pyridinyl) ethyl]benzamide compounds and their use as fungicides” (Bayer Cropscience SA, priority 2003, dated 2010).

Columns and labels:
Alternaria brassicae = assay: In vivo test on Alternaria brassicae (leaf spot of crucifers) on radish plants; conditions: Alternaria brassicae; dose of 330 ppm; radish plants sprayed 24 hours before contamination; grading 6 to 7 days after contamination vs control plants; read-out: good (at least 50%) or total protection
Protocol: In Vivo Test on Alternaria brassicae (Leaf Spot of Crucifers)
(§1) The active ingredient tested is prepared by potter homogenisation in a concentrated suspension type formulation at 100 g/l. This suspension is then diluted with water to obtain the desired active material concentration.
Radish plants (Pernot variety) in starter cups, sown on a 50/50 peat soil-pozzolana substrate and grown at 18-20° C., are treated at the cotyledon stage by spraying with the aqueous suspension described above.
(§2) Plants, used as controls, are treated with an aqueous solution not containing the active material.
After 24 hours, the plants are contaminated by spraying them with an aqueous suspension of Alternaria brassicae spores (40,000 spores per cm^3). The spores are collected from a 12 to 13 days-old culture.
The contaminated radish plants are incubated for 6-7 days at about 18° C., under a humid atmosphere.
Grading is carried out 6 to 7 days after the contamination, in comparison with the control plants.

Botrytis cinerea = assay: In vivo test on Botrytis cinerea (cucumber grey mould); conditions: Botrytis cinerea; dose of 330 ppm; cucumber plants sprayed 24 hours before contamination; grading 5/7 days after contamination vs control plants; read-out: good (at least 50%) or total protection
Protocol: In Vivo Test on Botrytis cinerea (Cucumber Grey Mould)
as §1
(§3) Cucumber plants (Marketer variety) in starter cups, sown on a 50/50 peat soil-pozzolana substrate and grown at 18-20° C., are treated at the cotyledon Z11 stage by spraying with the aqueous suspension described above. Plants, used as controls, are treated with an aqueous solution not containing the active material.
After 24 hours, the plants are contaminated by depositing drops of an aqueous suspension of Botrytis cinerea spores (150,000 spores per ml) on upper surface of the leaves. The spores are collected from a 15-day-old culture and are suspended in a nutrient solution composed of:
The contaminated cucumber plants are settled for 5/7 days in a climatic room at 15-11° C. (day/night) and at 80% relative humidity.
Grading is carried out 5/7 days after the contamination, in comparison with the control plants. Under these conditions, good (at least 50%) or total protection is observed at a dose of 330 ppm with the following compounds: 1, 2, 3, 4, 5, 6, 9, 10, 13, 18, 21, 22, 23, 25, 26, 27, 28, 29, 32, 34, 35, 38, 40, 43, 44, 45, 46, 47, 50, 51, 52, 53, 57 and 62.

[1] = system: Erysiphe graminis f. sp. tritici; assay: In vivo test on Erysiphe graminis f. sp. tritici (powdery mildew of wheat); conditions: Blumeria graminis; dose of 330 ppm; wheat plants sprayed 24 hours before contamination; grading 7 to 14 days after contamination vs control plants; read-out: good (at least 50%) or total protection
Protocol: In Vivo Test on Erysiphe graminis f. sp. tritici (Powdery Mildew of Wheat)
as §1
Wheat plants (Audace variety) in starter cups, sown on 50/50 peat soil-pozzolana substrate and grown at 12° C., are treated at the 1-leaf stage (10 cm tall) by spraying with the aqueous suspension described above.
as §2
After 24 hours, the plants are contaminated by dusting them with Erysiphe graminis f. sp. tritici spores, the dusting being carried out using diseased plants.
Grading is carried out 7 to 14 days after the contamination, in comparison with the control plants.
Under these conditions, good (at least 50%) or total protection is observed at a dose of 330 ppm with the following compounds: 1, 3, 4, 5, 6, 8, 9, 10, 11, 12, 13, 18, 38, 50, 43 and 45.

Pyrenophora teres = assay: In vivo test on Pyrenophora teres (barley net blotch); conditions: 288 h, dose of 330 ppm, barley plants sprayed 24 hours before contamination, grading 12 days after contamination vs control plants, read-out: good (at least 50%) or total protection
Protocol: In Vivo Test on Pyrenophora teres (Barley Net Blotch)
as §1
as §3, with “Barley” for “Cucumber”, “(Express” for “(Marketer”, “12°” for “18-20°”, “1-leaf” for “cotyledon Z11”, “stage (10 cm tall)” for “stage”
After 24 hours, the plants are contaminated by spraying them with an aqueous suspension of Pyrenophora teres spores (12,000 spores per ml). The spores are collected from a 12-day-old culture. The contaminated barley plants are incubated for 24 hours at about 20° C. and at 100% relative humidity, and then for 12 days at 80% relative humidity.

O=C(NCCc1ncc(Cl)cc1F)c1ccccc1C(F)(F)F [Compound 10]
pest or weed control at 330 ppm (Alternaria brassicae): ≥ 50% | pest or weed control at 330 ppm (Botrytis cinerea): ≥ 50% | pest or weed control at 330 ppm [1]: ≥ 50% | pest or weed control at 330 ppm (Pyrenophora teres): ≥ 50%

O=C(NCCc1nc(F)c(F)cc1F)c1ccccc1C(F)(F)F [Compound 12]
pest or weed control at 330 ppm (Alternaria brassicae): ≥ 50% | pest or weed control at 330 ppm [1]: ≥ 50% | pest or weed control at 330 ppm (Pyrenophora teres): ≥ 50%

O=C(NCCc1nc(F)ccc1Cl)c1ccccc1C(F)(F)F [Compound 13]
pest or weed control at 330 ppm (Alternaria brassicae): ≥ 50% | pest or weed control at 330 ppm (Botrytis cinerea): ≥ 50% | pest or weed control at 330 ppm [1]: ≥ 50% | pest or weed control at 330 ppm (Pyrenophora teres): ≥ 50%

O=C(NCCc1ncc(Cl)cc1Br)c1ccccc1C(F)(F)F [Compound 38]
pest or weed control at 330 ppm (Alternaria brassicae): ≥ 50% | pest or weed control at 330 ppm (Botrytis cinerea): ≥ 50% | pest or weed control at 330 ppm [1]: ≥ 50% | pest or weed control at 330 ppm (Pyrenophora teres): ≥ 50%

Cc1c(F)c(F)nc(CCNC(=O)c2ccccc2I)c1F [Compound 43]
pest or weed control at 330 ppm (Alternaria brassicae): ≥ 50% | pest or weed control at 330 ppm (Botrytis cinerea): ≥ 50% | pest or weed control at 330 ppm [1]: ≥ 50% | pest or weed control at 330 ppm (Pyrenophora teres): ≥ 50%

O=C(NCCc1ncc(Cl)cc1Cl)c1ccccc1C(F)(F)F [Compound 1, N-[2-(3,5-dichloro-2-pyridinyl)ethyl]-2-(trifluoromethyl)benzamide]
melting point: 118 °C | pest or weed control at 330 ppm (Alternaria brassicae): ≥ 50% | pest or weed control at 330 ppm (Botrytis cinerea): ≥ 50% | pest or weed control at 330 ppm [1]: ≥ 50% | pest or weed control at 330 ppm (Pyrenophora teres): ≥ 50%

O=C(NCCc1ncc(Cl)cc1Cl)c1ccccc1I [Compound 5, N-[2-(3,5-dichloro-2-pyridinyl)ethyl]-2-(iodo)benzamide]
melting point: 133 °C | pest or weed control at 330 ppm (Alternaria brassicae): ≥ 50% | pest or weed control at 330 ppm (Botrytis cinerea): ≥ 50% | pest or weed control at 330 ppm [1]: ≥ 50% | pest or weed control at 330 ppm (Pyrenophora teres): ≥ 50%

O=C(NCCc1ncccc1Cl)c1ccccc1C(F)(F)F [Compound 6, N-[2-(3-chloro-2-pyridinyl)ethyl]-2-(trifluoromethyl)benzamide]
pest or weed control at 330 ppm (Alternaria brassicae): ≥ 50% | pest or weed control at 330 ppm (Botrytis cinerea): ≥ 50% | pest or weed control at 330 ppm [1]: ≥ 50%

Cc1ccc(CCNC(=O)c2ccccc2C(F)(F)F)nc1 [Compound 9]
pest or weed control at 330 ppm (Alternaria brassicae): ≥ 50% | pest or weed control at 330 ppm (Botrytis cinerea): ≥ 50% | pest or weed control at 330 ppm [1]: ≥ 50% | pest or weed control at 330 ppm (Pyrenophora teres): ≥ 50%

O=C(NCCc1nc(F)c(F)cc1F)c1ccccc1I [Compound 45]
pest or weed control at 330 ppm (Alternaria brassicae): ≥ 50% | pest or weed control at 330 ppm (Botrytis cinerea): ≥ 50% | pest or weed control at 330 ppm [1]: ≥ 50% | pest or weed control at 330 ppm (Pyrenophora teres): ≥ 50%

Cc1ccccc1C(=O)NCCc1ncc(Cl)cc1Cl [Compound 3]
pest or weed control at 330 ppm (Alternaria brassicae): ≥ 50% | pest or weed control at 330 ppm (Botrytis cinerea): ≥ 50% | pest or weed control at 330 ppm [1]: ≥ 50% | pest or weed control at 330 ppm (Pyrenophora teres): ≥ 50%

Cc1cc(Br)cnc1CCNC(=O)c1ccccc1C(F)(F)F [Compound 18]
pest or weed control at 330 ppm (Alternaria brassicae): ≥ 50% | pest or weed control at 330 ppm (Botrytis cinerea): ≥ 50% | pest or weed control at 330 ppm [1]: ≥ 50% | pest or weed control at 330 ppm (Pyrenophora teres): ≥ 50%
